Literature values in US6645524B2, “Oral pharmaceutical dosage forms for pulsatile delivery of an antiarrhythmic agent” (Pierce Management LLC, priority 2000, dated 2003).
Where two headings read alike, the source gives them in different places.

Legend:
[1] = test system: patients with histories of sustained ventricular tachyarrhythmias; conditions: versus imipramine, mexiletine, pirmenol, procainamide, propafenone and quinidine, 496 patients
QT interval = conditions: 6 days of 80 mg twice or three times daily, 10 patients
[2] = test system: patients with chronic atrial fibrillation/atrial flutter; conditions: titrated 80 mg/day to 320 mg/day after cardioversion; placebo 44 days
[3] = test system: patients with symptomatic primary paroxymal atrial fibrillation/atrial flutter; conditions: for median time to recurrence of symptomatic ECG-documented atrial fibrillation/atrial flutter: twice a day
[4] = test system: high-risk post-myocardial infarction patients; conditions: 3,121 patients with left ventricular ejection fraction of 40% or below, versus placebo
[5] = more than 99% enantiomerically pure, given in tablets

| SMILES | preventing death from arrhythmias or any other cardiac cause [1] | partial loss of repolarization effect (pharmacodynamic tolerance) (QT interval) | median time to recurrence of ECG-documented atrial fibrillation [2] | patients discontinued because of adverse events ([3]; 80 mg dose level) | median time to recurrence of symptomatic ECG-documented atrial fibrillation/atrial flutter ([3]; 80 mg dose level) | patients discontinued because of adverse events ([3]; 120 mg dose level) | median time to recurrence of symptomatic ECG-documented atrial fibrillation/atrial flutter ([3]; 120 mg dose level) | patients discontinued because of adverse events ([3]; 160 mg dose level) | median time to recurrence of symptomatic ECG-documented atrial fibrillation/atrial flutter ([3]; 160 mg dose level) | absorption (given with food) | apparent volume of distribution (human, in vivo) | eliminated by renal excretion as unchanged sotalol (human, in vivo) | protein binding (human, in vivo) | bioavailability (no significant presystemic metabolism) | absorption (oral ingestion on an empty stomach) | mortality [4] | effect on heart rate and blood pressure [5] |
| --- | --- | --- | --- | --- | --- | --- | --- | --- | --- | --- | --- | --- | --- | --- | --- | --- | --- |
| CC(C)NCC(O)c1ccc(NS(C)(=O)=O)cc1 (racemic) [sotalol] | more effective than the other agents | four out of the ten patients | more than 180 days | 12% | 106 days | 18% | 229 days | 29% | 175 days | approximately 80% | two | 80-90% | negligible | completely bioavailable | completely absorbed |  |  |
| CC(C)NC[C@@H](O)c1ccc(NS(C)(=O)=O)cc1 [d-sotalol] |  |  |  |  |  |  |  |  |  |  |  |  |  |  |  | increased mortality compared with placebo | decreased resting and exercise heart rate without altering blood pressure |
